Experimental data: PMC10935098 (Molecules, 2024)
In brackets after ≈: the same amount, converted by molar mass.

Tests used:
[1] = system: Candida tropicalis (BNCC340288); experiment: microbe, parasite or virus in culture; details: 24 h, read-out: MIC, C. tropical
[2] = system: Candida parapsilosis (BNCC336015); experiment: microbe, parasite or virus in culture; details: Lodderomyces parapsilosis, 24 h, read-out: MIC, C. parapsilosis

Clc1ccccc1C(c1ccccc1)(c1ccccc1)n1ccnc1 [clotrimazole]
MIC [1]: 12.5 µM (≈ 4.31 µg/mL)
MIC [2]: 25 µM (≈ 8.62 µg/mL)
